Laboratory results published in patent publication US5439899A, “Cosalane and related compounds having activity against aids and aids-related infections” (priority 1993, dated 1995).
Several values for one entry are separate records, joined by “and”; a condition that tells them apart may be missing. Equal values may be shown once. Read-outs that look alike come from different tables or passages of the source.

Columns and labels:
HIV = test: NCI in vitro anti-HIV screen (XTT soluble-formazan assay, protection of HIV-infected CEM cells); type: cell-based; conditions: for EC50: approximate values, one value per run; for TI50 (IC/EC), therapeutic index: ratio IC50/EC50 of the same run; for anti-HIV effect (statement): NCI anti-HIV screen, in vitro, CEM cells
Excerpt: The National Cancer Institute's procedure for testing for agents active against Human Immunodeficiency Virus (HIV) (Weislow, O. W. et al, "New soluble-formazan assay for HIV-1 cytopathic effects: application to high-flux screening of synthetic and natural products for AIDS-antiviral activity," J. Natl. Cancer Inst., 81, 577-586, 1989) is designed to detect agents acting at any stage of the virus reproductive cycle. The assay includes the killing of T4 lymphocytes by HIV. Pursuant to the test, small amounts of HIV are added to cells, and a complete cycle of virus reproduction is necessary to obtain the required cell killing. Agents that interact with virions, cells, or virus gene-products to interfere with viral activities will protect cells from cytolysis. The system is thus designed to detect anti-HIV activity. However, compounds that degenerate or are rapidly metabolized in the culture conditions may not show activity in this screen. All tests are compared with at least one positive (e.g., AZT-treated) control done at the same time under identical conditions.
(§1) 1. The candidate agent is dissolved in dimethyl sulfoxide (unless otherwise instructed), then diluted 1:200 in cell culture medium. Further dilutions (half-log10) are prepared before adding to 96-well microtiter plates.
(§2) 2. T4 lymphocytes (CEM cell line) are exposed to HIV at a virus-to-cell ratio of approximately 0.05 and are plated along with non-infected control cells into drug-containing wells or wells with medium alone.
(§3) 3. Cultures are incubated at 37° in a 5% carbon dioxide atmosphere for 6 days.
(§4) 4. The tetrazolium salt, XTT, is added to all wells, and cultures are incubated to allow formazan color development by viable cells.
(§5) 5. […] are analyzed spectrophotometrically to quantitate formazan production and, in addition, are viewed microscopically for detection of viable cells and confirmation of protective activity.
(§6) 6. Drug-treated virus-infected cells are compared with drug-treated non-infected cells and with other appropriate controls (untreated infected and untreated non-infected cells, drug-containing wells without cells, etc.) on the same plate.
(§7) 7. Data are reviewed in comparison with other tests performed at the same time, and a determination about activity is made.
Approximate values for 50% effective concentration (EC50) (protection in infected cells), 50% inhibitory concentration (IC50) and the therapeutic index (IC50 /EC50) have been calculated for each test and are provided in the tables of each Example.
Examples 1, 6 and 8 compounds, respectively, against the measured test values expressed as a percentage of the uninfected, untreated control values. The solid line depicts the percentage of surviving HIV-infected cells treated with sample (at the indicated concentration) relative to uninfected, untreated controls. The solid line expresses the in vitro anti-HIV activity of the compound of the tested compound. The dashed line depicts the percentage of surviving uninfected cells treated with the compound of the Example relative to the same uninfected, untreated controls. The dashed line expresses the in vitro growth inhibitory properties of the compound of the Example. The viral cytopathic effect of a compound of each Example is indicated by a combination of dashes and dots. […] Survival values of this parameter less then 50% are considered acceptable in the current protocol.

[1] = tested on: T4 lymphocytes (CEM cell line); test: NCI in vitro anti-HIV screen, growth inhibition of uninfected CEM cells (XTT); type: cell-based; conditions: for IC50: read-out: IC50 (50% inhibitory concentration); for cytotoxicity (statement): NCI anti-HIV screen, CEM cells
Procedure: The assay includes the killing of T4 lymphocytes by HIV. Pursuant to the test, small amounts of HIV are added to cells, and a complete cycle of virus reproduction is necessary to obtain the required cell killing. Agents that interact with virions, cells, or virus gene-products to interfere with viral activities will protect cells from cytolysis. The system is thus designed to detect anti-HIV activity. However, compounds that degenerate or are rapidly metabolized in the culture conditions may not show activity in this screen. All tests are compared with at least one positive (e.g., AZT-treated) control done at the same time under identical conditions.
as §1, §2, §3, §4, §5, §6, §7
Survival values of this parameter less then 50% are considered acceptable in the current protocol.

[2] = Human immunodeficiency virus 1, CCRF-CEM, 144 h, HIV-infected CEM cells, 6 days, XTT, read-out: EC50 (50% effective concentration, protection in infected cells)
[3] = Homo sapiens, CCRF-CEM, 144 h, drug-treated uninfected CEM cells, 6 days, XTT, approximate values, one value per run
[4] = drug-treated uninfected CEM cells, 6 days, XTT, approximate values, one value per run
[5] = HIV-infected CEM cells, 6 days, XTT, read-out: EC50 (50% effective concentration, protection in infected cells)
[6] = Human immunodeficiency virus 1, CCRF-CEM, 144 h, read-out: EC50 (50% effective concentration, protection in infected cells), HIV-infected CEM cells, 6 days, XTT

Molecule	EC50 (HIV; [2]) [µM]	TI50 (IC/EC), therapeutic index (HIV)	IC50 [1, 3] [µM]	IC50 [1, 4]	further results
CCCCCCCCCCC(c1ccc(O)c(C(=O)O)c1)c1ccc(O)c(C(=O)O)c1 [Formula XVIII]	33.2	2.55 × 10^0	84.6	–	–
CCCCCCCCCCCCCCCC=C(c1cc(Cl)c(OC)c(C(=O)O)c1)c1cc(Cl)c(OC)c(C(=O)O)c1 [Formula XXIV, 1,1-di(3'-carboxy-5'-chloro-4'-methoxy)phenyl-1-heptadecene]	–	–	26.6	25.9 µM	cytotoxicity (statement) [1]: cytotoxic
CCCCCCCCCCCCCCCC=C(c1cc(Cl)c(O)c(C(=O)O)c1)c1cc(Cl)c(O)c(C(=O)O)c1 [Formula XIV, 1,1-di(3'-ammoniumcarboxy-5'-chloro-4'-hydroxy)phenyl-1-heptadecene]	4.62	> 7.57 × 10^0	> 35	–	–
CCCCCCCCCCCCCCCCC(c1ccc(O)c(C(=O)O)c1)c1ccc(O)c(C(=O)O)c1 [Formula XXII]	–	1.56 × 10^0 and 3.06 × 10^+1 and 3.05 × 10^+1	–	51.4 µM and 119 µM	EC50 (HIV; [5]): 3.9 µM
CCCCCCCCCC=C(c1cc(Br)c(O)c(C(=O)O)c1)c1cc(Br)c(O)c(C(=O)O)c1 [Formula XX, 1,1-di(3'-ammoniumcarboxy-5'-bromo-4'-hydroxy)phenyl-1-undecene]	55.5	> 3.44 × 10^0	> 191	–	–
CCCCCC=C(c1cc(Br)cc(C(=O)O)c1OC)c1cc(Br)cc(C(=O)O)c1OC [Formula XXI]	97.1	1.80 × 10^0 and 3.52 × 10^0	175	244 µM	EC50 (HIV; [5]): 69.3 µM
CCCCCC=C(c1cc(Cl)c(OC)c(C(N)=O)c1)c1cc(Cl)c(OC)c(C(N)=O)c1 [Formula XVI, 1,1-di(3'-carbamoyl-5'-chloro-4'-methoxy)phenyl-1-heptene]	–	–	17.4	17.2 µM and 16.3 µM and 13.4 µM	–
CCCCCC=C(c1cc(Br)cc(C(=O)O)c1O)c1cc(Br)cc(C(=O)O)c1O [Formula XV]	15.3	> 1.43 × 10^0	> 21.8	–	–
CCCCCCCCCCCCCCCCCCCCCCCCCCCCCC=C(c1cc(Cl)c(O)c(C(=O)O)c1)c1cc(Cl)c(O)c(C(=O)O)c1 [Formula XI, 1,1-di(3'-ammoniumcarboxy-5'-chloro-4'hydroxy) phenyl-1-untriacontene]	13.3	> 1.67 × 10^+1 and > 1.36 × 10^+4 and > 1.90 × 10^+1 and > 2.40 × 10^+1	> 222	> 220 µM	EC50 (HIV; [5]): 16.3 µM and 11 µM and 9.3 µM; anti-HIV effect (statement) (HIV): greatest effect on inhibiting HIV-infected cells, while having a lesser effect on uninfected cells
CCCCCCCCCC=C(c1cc(Cl)c(O)c(C(=O)O)c1)c1cc(Cl)c(O)c(C(=O)O)c1 [Formula XIII, 1,1-di(3'-ammoniumcarboxy-5'-chloro-4'-hydroxy)phenyl-1-undecene]	37.3	> 1.32 × 10^0	> 49.1	–	–
CC(C)CCC[C@@H](C)[C@H]1CC[C@H]2[C@@H]3CC[C@H]4C[C@@H](CCCC(c5cc(Cl)c(O)c(C(=O)O)c5)c5cc(Cl)c(O)c(C(=O)O)c5)CC[C@]4(C)[C@H]3CC[C@]12C [Formula VI, (5α)-3β-[4,4-Di(3'-ammoniumcarboxy-5'-chloro-4'-hydroxy)phenyl-1-butyl]cholestane]	–	> 1.80 × 10^+1 and > 2.10 × 10^+1 and > 1.30 × 10^+1 and > 1.20 × 10^+1	–	–	EC50 (HIV; [6]): 17 µM; anti-HIV effect (statement) (HIV): greatest effect on inhibiting HIV-infected cells, while having a lesser effect on uninfected cells; EC50 (HIV; read-out: EC50 (50% effective concentration, protection in infected cells), HIV-infected CEM cells, 6 days, XTT): 15 µM and 23 µM and 25 µM; IC50 ([1]; Homo sapiens, CCRF-CEM, 144 h): > 310 µM
COC(=O)c1cc(C(=CCCBr)c2cc(Cl)c(OC)c(C(=O)OC)c2)cc(Cl)c1OC [Formula XIX, 4-bromo-1,1-di(3'-carbomethoxy-5'-chloro4'-methoxy)phenyl-1-butene]	8.19	2.62 × 10^0 and 1.96 × 10^0	21.5	15.2 µM	EC50 (HIV; [5]): 7.73 µM
O=C(O)c1cc(C(=CCCBr)c2cc(Cl)c(O)c(C(=O)O)c2)cc(Cl)c1O [Formula XVII]	136	1.58 × 10^0 and 1.93 × 10^0 and 1.50 × 10^0 and 2.71 × 10^0	214	237 µM and 181 µM and 258 µM	EC50 (HIV; [5]): 122 µM and 121 µM and 95.1 µM
CC(CCC=C(c1cc(Cl)c(O)c(C(=O)O)c1)c1cc(Cl)c(O)c(C(=O)O)c1)C1CC[C@H]2[C@@H]3CC[C@H]4CCCC[C@]4(C)[C@H]3CC[C@]12C (stereo partly shown) [Formula IX]	–	–	–	> 59 µM and > 69 µM and 79 µM	–
COc1c(Cl)cc(C(=CCC[C@H]2CC[C@@]3(C)[C@@H](CC[C@@H]4[C@@H]3CC[C@]3(C)[C@@H]([C@H](C)CCCC(C)C)CC[C@@H]43)C2)c2cc(Cl)c(OC)c(C(=O)O)c2)cc1C(=O)O [Formula V]	–	–	–	–	anti-HIV effect (statement) (HIV): greatest effect on inhibiting HIV-infected cells, while having a lesser effect on uninfected cells; IC50 ([1]; Homo sapiens, CCRF-CEM, 144 h): > 300 µM
CCCCCC=C(c1cc(Br)c(OC)c(C(=O)OC)c1)c1cc(Br)c(OC)c(C(=O)OC)c1 [Formula XII, 1,1-di(5'-bromo-3'-carbomethoxy-4'-methoxy)phenyl-1-heptene]	–	–	> 8.95	–	anti-HIV effect (statement) (HIV): greatest effect on inhibiting HIV-infected cells, while having a lesser effect on uninfected cells; anti-HIV effect (statement) (HIV; listed as structure XII): most effective compounds studied in terms of prevention of the cytopathic effect of HIV in CEM lymphocytes
(5α)-3β-[4,4-di(5'-bromo-4'-methoxy-3'-methoxycarbonyl)phenyl-1-buten-3-yl]cholestane [Formula VII]	–	–	–	> 280 µM	–
C[C@H](CCC=C(c1cc(Cl)c(O)c(C(=O)O)c1)c1cc(Cl)c(O)c(C(=O)O)c1)[C@H]1CC[C@H]2[C@@H]3CC[C@@H]4CC(F)(F)CC[C@]4(C)[C@H]3CC[C@]12C [Formula X, (5β)-3,3-difluoro-17-[5,5-di(3-ammoniumcarboxy-5-chloro-4-hydroxy)phenyl-1-methyl-4-pentenyl]androstane]	–	1.80 × 10^0	41	–	EC50 (HIV; [6]): 24 µM
COc1c(Cl)cc(C(=Cc2c(F)c(F)c(F)c(F)c2F)c2cc(Cl)c(OC)c(C(=O)O)c2)cc1C(=O)O [Formula XXV]	140	–	434	552 µM and 412 µM	EC50 (HIV; [5]): 102 µM and 176 µM
CCCCCC=C(c1cc(Cl)c(OC)c(C(=O)OC)c1)c1cc(Cl)c(OC)c(C(=O)OC)c1 [Formula XXVI, di(3'-carbomethoxy-5'-chloro-4'-methoxy)phenyl-1-heptene]	–	–	> 29.1	> 28.2 µM	–
CCCCCCCCCC=C(c1cc(Br)cc(C(=O)O)c1OC)c1cc(Br)cc(C(=O)O)c1OC [Formula XXIII, 1,1-[di-(3'-ammoniumcarboxy-5'-bromo-2'methoxy)phenyl]-1-undecene]	–	–	88.9	79.5 µM and 68.3 µM and 69.8 µM	cytotoxicity (statement) [1]: cytotoxic
CCCCCCCCCC=C(c1cc(Cl)c(OC)c(C(=O)O)c1)c1cc(Cl)c(OC)c(C(=O)O)c1 [Formula XXVII, 1,1-di(3'-ammoniumcarboxy-5'-chloro-4'methoxy) phenyl-1-undecene]	–	–	149	166 µM and 169 µM	–
